In article PMC5655693, “Conformational stabilization as a strategy to prevent nucleophosmin mislocalization in leukemia” (Scientific Reports, 2017):

Key:
Nucleophosmin (NPM) [1] = molecular target: T1, Nucleophosmin (NPM) (Homo sapiens, UniProt P06748); assay: SPR steady state ([…] model, S0.[…] ≈ KD); DSF ΔTm […] °C at […] with C-terminal domain; format: binding
T1 construct: gene NPM1; full-length NPM (SPR); C-terminal domain residues 243–294 (DSF)

Nucleophosmin (NPM) [2] = molecular target: T1, Nucleophosmin (NPM); assay: SPR steady state ([…] model, S0.[…] ≈ KD); DSF ΔTm […] °C at […] with C-terminal domain; Trp fluorescence unfolding; format: binding

T1 sequence (P06748 whole entry, the tested form may be a part): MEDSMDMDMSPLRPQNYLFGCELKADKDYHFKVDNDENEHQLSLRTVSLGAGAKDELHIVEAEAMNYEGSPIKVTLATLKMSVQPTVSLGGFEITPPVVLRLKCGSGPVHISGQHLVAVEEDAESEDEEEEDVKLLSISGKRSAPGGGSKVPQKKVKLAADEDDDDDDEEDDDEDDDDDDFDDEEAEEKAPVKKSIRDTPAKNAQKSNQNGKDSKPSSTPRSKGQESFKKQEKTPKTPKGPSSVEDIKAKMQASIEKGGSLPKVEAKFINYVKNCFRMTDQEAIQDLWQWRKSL

Row | Kd (Nucleophosmin (NPM) [1]) | Kd (Nucleophosmin (NPM) [2]) | Compound
1 | 102 ± 23 µM | – | Cc1ccc(-n2c(SCC(=O)Nc3ccc4c(c3)OCCO4)nc3ccccc3c2=O)cc1 [C3]
2 | – | 68 ± 13 µM | CC1=C(C(=O)Nc2ccc(Br)cn2)C(c2ccccn2)C2=C(CC(c3ccccc3)CC2=O)N1 (centres unmarked) [C1]
